From US6113896A, “Pharmaceutical compositions containing ecotin and homologs thereof” (priority 1994, dated 2000)

Biological target: human plasma kallikrein
Experiment: Equilibrium inhibition constant with plasma kallikrein
Type: biochemical
Experimental: Determination of Equilibrium Inhibition Constants Apparent Ki values (Ki *) for the inhibition of the enzymes tested by ecotin and mutants were measured as follows. All reactions were performed at 25° C. Stock solutions of trypsin were quantitated by active site burst titration with MUGB as previously described (Jameson, G. W. et al., Biochem. J. 131:107-117 [1973]) using a Fluoroskan II plate reader at excitation wavelength of 355 nm and emission wavelength of 460 nm. Data was collected on a Macintosh SE20 using either Delta Soft II Fl v3.31 software (BioMetallics). Active site titrated trypsin was then used to quantitate ecotin active sites using BAPA as the substrate; a stoichiometry of 1:1 was assumed (Chung, C. H. et al., supra). Factor Xa, Factor XIIa, plasma kallikrein, or HLE were then quantitated by active site titration using ecotin as a standard, again assuming 1:1 stoichiometry. In addition, the concentration of HLE was quantitated by methods previously described using a calibrated stock of α1 -proteinase inhibitor to titrate the HLE active sites (Beatty, K. et al., J. Biol. Chem. 255:3931-3934 [1980]); the same HLE active site concentration was determined using both ecotin and α1 -proteinase inhibitor. […]

Question: How did the Ki (plasma kallikrein=1.3 nM) turn out when “Ecotin: E. coli periplasmic protein having the 142 amino acid residue sequence reported by McGrath et al.; recombinant, P1 Met84” was run?
Answer: 0.175 ± 0.02 nM

Question: What about the Ki (plasma kallikrein=4.3 nM) of the same substance?
Answer: 0.151 ± 0.02 nM
